Earlier results as cited in US20240153607A1, “System for Determining Treatment Timing and Methods of Treatment Timed Based on Biological Process Indicators” (Arcascope Inc., priority 2022, published 2024).

Settings: cancer treatments in humans; [Hrushesky], [Lévi1990]

Row | SMILES | time of day at which the drug is most tolerable (toxicity by time of day)
1 | COc1cccc2c1C(=O)c1c(O)c3c(c(O)c1C2=O)C[C@@](O)(C(=O)CO)C[C@@H]3O[C@H]1C[C@H](N)[C@H](O)[C@H](C)O1 [doxorubicin] | most tolerable in the morning
2 | COc1cccc2c1C(=O)c1c(O)c3c(c(O)c1C2=O)C[C@@](O)(C(=O)CO)C[C@@H]3O[C@H]1C[C@H](N)[C@H](O[C@@H]2CCCCO2)[C@H](C)O1 [theprubicin] | most tolerable in the morning
